# Measurements as given in patent US20250122219A1 (priority 2023, published 2025).
# Experiments:
# [1] = tested on: HIV-1 (IIIB); assay: Antiviral assay in MT-4 cells; format: cell-based; conditions: Human immunodeficiency virus 1, MT4, 120 h; HIV-1 IIIB in MT-4 cells, 5 days incubation, Cell Titer Glo; read-out: MT4 EC50
# In short: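 Read-out: CellTiter-Glo luminescence after 5 days at 37 °C, reflecting survival of MT-4 cells infected with HIV-1 IIIB (1:250 fresh stock dilution) versus mock-infected. Compounds serially diluted into RPMI with 10% FBS; AZT at 5 μM served as positive control.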
# [2] = Cytotoxicity assay in MT-4 cells; format: cell-based; conditions: human; uninfected MT-4 cells, 5 days incubation, Cell Titer Glo; read-out: MT4 CC50
# In short: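 Viability read by Cell Titer Glo luminescence after 5 days at 37 °C. MT-4 cells, not infected, in complete RPMI (10% FBS), received compound dilution series. Base cytotoxicity set with […] puromycin.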
Compound,EC50 [1],CC50 at 5 days [2]
"CCCCCCCCCCCCCCCC(=O)OCOc1c2n(cc(C(=O)NCc3ccc(F)cc3F)c1=O)[C@@H]1CN(C2=O)[C@@H](C)CC[C@]12CC(OC)=NO2 [Example 104, (((3′S,5S,7′R)-10′-((2,4-difluorobenzyl)carbamoyl)-3-methoxy-3′-methyl-1′,11′-dioxo-1′,4′,5′,11′-tetrahydro-3′H,4H,7′H-spiro[isoxazole-5,6′-[2,7]methanopyrido[1,2-a][1,4]diazonin]-12′-yl)oxy)methyl palmitate]",0.0117 µM,≥ 50 µM
"CCCCCCCCCCCCCCCC(=O)OCOc1c2n(cc(C(=O)NCc3ccc(F)cc3F)c1=O)[C@@H]1CN(C2=O)[C@@H](C)CC[C@]12CC(C)=NO2 [Example 105, (((3′S,5S,7′R)-10′-((2,4-difluorobenzyl)carbamoyl)-3,3′-dimethyl-1′,11′-dioxo-1′,4′,5′,11′-tetrahydro-3′H,4H,7′H-spiro[isoxazole-5,6′-[2,7]methanopyrido[1,2-a][1,4]diazonin]-12′-yl)oxy)methyl palmitate]",0.0225 µM,≥ 50 µM
"CCCCCCCCCCCCCCCCCC(=O)OCOc1c2n(cc(C(=O)NCc3ccc(F)cc3F)c1=O)[C@@H]1CN(C2=O)[C@@H](C)CC[C@]12CC(OC)=NO2 [Example 106, (((3′S,5S,7′R)-10′-((2,4-difluorobenzyl)carbamoyl)-3-methoxy-3′-methyl-1′,11′-dioxo-1′,4′,5′,11′-tetrahydro-3′H,4H,7′H-spiro[isoxazole-5,6′-[2,7]methanopyrido[1,2-a][1,4]diazonin]-12′-yl)oxy)methyl stearate]",0.0272 µM,≥ 50 µM
"CCCCCCCCCCCCCCCCCC(=O)OCOc1c2n(cc(C(=O)NCc3ccc(F)cc3F)c1=O)[C@@H]1CN(C2=O)[C@@H](C)CC[C@]12CC(C)=NO2 [Example 107, (((3′S,5S,7′R)-10′-((2,4-difluorobenzyl)carbamoyl)-3,3′-dimethyl-1′,11′-dioxo-1′,4′,5′,11′-tetrahydro-3′H,4H,7′H-spiro[isoxazole-5,6′-[2,7]methanopyrido[1,2-a][1,4]diazonin]-12′-yl)oxy)methyl stearate]",0.0323 µM,≥ 50 µM
"COC1=NO[C@@]2(CC[C@H](C)N3C[C@H]2n2cc(C(=O)NCc4ccc(F)cc4F)c(=O)c(OCOC(=O)CC(C)C)c2C3=O)C1 [Example 110, (((3′S,5S,7′R)-10′-((2,4-difluorobenzyl)carbamoyl)-3-methoxy-3′-methyl-1′,11′-dioxo-1′,4′,5′,11′-tetrahydro-3′H,4H,7′H-spiro[isoxazole-5,6′-[2,7]methanopyrido[1,2-a][1,4]diazonin]-12′-yl)oxy)methyl 3-methylbutanoate]",0.0015 µM,16.4 µM
"CC1=NO[C@@]2(CC[C@H](C)N3C[C@H]2n2cc(C(=O)NCc4ccc(F)cc4F)c(=O)c(OCOC(=O)CC(C)C)c2C3=O)C1 [Example 111, (((3′S,5S,7′R)-10′-((2,4-difluorobenzyl)carbamoyl)-3,3′-dimethyl-1′,11′-dioxo-1′,4′,5′,11′-tetrahydro-3′H,4H,7′H-spiro[isoxazole-5,6′-[2,7]methanopyrido[1,2-a][1,4]diazonin]-12′-yl)oxy)methyl 3-methylbutanoate]",0.00195 µM,13.8 µM
"COC1=NO[C@@]2(CC[C@H](C)N3C[C@H]2n2cc(C(=O)NCc4ccc(F)cc4F)c(=O)c(OCOC(=O)CCCC(C)C)c2C3=O)C1 [Example 113, (((3′S,5S,7′R)-10′-((2,4-difluorobenzyl)carbamoyl)-3-methoxy-3′-methyl-1′,11′-dioxo-1′,4′,5′,11′-tetrahydro-3′H,4H,7′H-spiro[isoxazole-5,6′-[2,7]methanopyrido[1,2-a][1,4]diazonin]-12′-yl)oxy)methyl 5-methylhexanoate]",0.00178 µM,20.3 µM
"COC1=NO[C@@]2(CC[C@H](C)N3C[C@H]2n2cc(C(=O)NCc4ccc(F)cc4F)c(=O)c(OCOC(=O)CCCCC(C)C)c2C3=O)C1 [Example 114, (((3′S,5S,7′R)-10′-((2,4-difluorobenzyl)carbamoyl)-3-methoxy-3′-methyl-1′,11′-dioxo-1′,4′,5′,11′-tetrahydro-3′H,4H,7′H-spiro[isoxazole-5,6′-[2,7]methanopyrido[1,2-a][1,4]diazonin]-12′-yl)oxy)methyl 6-methylheptanoate]",0.00389 µM,19.7 µM
"CC1=NO[C@@]2(CC[C@H](C)N3C[C@H]2n2cc(C(=O)NCc4ccc(F)cc4F)c(=O)c(OCOC(=O)CCCCC(C)C)c2C3=O)C1 [Example 115, (((3′S,5S,7′R)-10′-((2,4-difluorobenzyl)carbamoyl)-3,3′-dimethyl-1′,11′-dioxo-1′,4′,5′,11′-tetrahydro-3′H,4H,7′H-spiro[isoxazole-5,6′-[2,7]methanopyrido[1,2-a][1,4]diazonin]-12′-yl)oxy)methyl 6-methylheptanoate]",0.00363 µM,16.2 µM
"COC1=NO[C@@]2(CC[C@H](C)N3C[C@H]2n2cc(C(=O)NCc4ccc(F)cc4F)c(=O)c(OCOC(=O)CCCCCC(C)C)c2C3=O)C1 [Example 116, (((3′S,5S,7′R)-10′-((2,4-difluorobenzyl)carbamoyl)-3-methoxy-3′-methyl-1′,11′-dioxo-1′,4′,5′,11′-tetrahydro-3′H,4H,7′H-spiro[isoxazole-5,6′-[2,7]methanopyrido[1,2-a][1,4]diazonin]-12′-yl)oxy)methyl 7-methyloctanoate]",0.00417 µM,27.2 µM
"CC1=NO[C@@]2(CC[C@H](C)N3C[C@H]2n2cc(C(=O)NCc4ccc(F)cc4F)c(=O)c(OCOC(=O)CCCCCC(C)C)c2C3=O)C1 [Example 117, (((3′S,5S,7′R)-10′-((2,4-difluorobenzyl)carbamoyl)-3,3′-dimethyl-1′,11′-dioxo-1′,4′,5′,11′-tetrahydro-3′H,4H,7′H-spiro[isoxazole-5,6′-[2,7]methanopyrido[1,2-a][1,4]diazonin]-12′-yl)oxy)methyl 7-methyloctanoate]",0.00284 µM,≥ 50 µM
CC1=NO[C@@]2(CC[C@H](C)N3C[C@H]2n2cc(C(=O)NCc4ccc(F)cc4F)c(=O)c(OCOC(=O)CCCC(C)C)c2C3=O)C1 [Example 118],0.00219 µM,18.2 µM
"COC1=NO[C@@]2(CC[C@H](C)N3C[C@H]2n2cc(C(=O)NCc4ccc(F)cc4F)c(=O)c(OCOC(=O)CCCCCCC(C)C)c2C3=O)C1 [Example 119, (((3′S,5S,7′R)-10′-((2,4-difluorobenzyl)carbamoyl)-3-methoxy-3′-methyl-1′,11′-dioxo-1′,4′,5′,11′-tetrahydro-3′H,4H,7′H-spiro[isoxazole-5,6′-[2,7]methanopyrido[1,2-a][1,4]diazonin]-12′-yl)oxy)methyl 8-methylnonanoate]",0.00287 µM,43.8 µM
"CC1=NO[C@@]2(CC[C@H](C)N3C[C@H]2n2cc(C(=O)NCc4ccc(F)cc4F)c(=O)c(OCOC(=O)CCCCCCC(C)C)c2C3=O)C1 [Example 120, (((3′S,5S,7′R)-10′-((2,4-difluorobenzyl)carbamoyl)-3,3′-dimethyl-1′,11′-dioxo-1′,4′,5′,11′-tetrahydro-3′H,4H,7′H-spiro[isoxazole-5,6′-[2,7]methanopyrido[1,2-a][1,4]diazonin]-12′-yl)oxy)methyl 8-methylnonanoate]",0.00204 µM,42.3 µM
"COC(=O)Oc1c2n(cc(C(=O)NCc3ccc(F)cc3F)c1=O)[C@@H]1CN(C2=O)[C@@H](C)CC[C@]12CC(C)=NO2 [Example 121, (3′S,5S,7′R)-10′-((2,4-difluorobenzyl)carbamoyl)-3,3′-dimethyl-1′,11′-dioxo-1′,4′,5′,11′-tetrahydro-3′H,4H,7′H-spiro[isoxazole-5,6′-[2,7]methanopyrido[1,2-a][1,4]diazonin]-12′-yl methyl carbonate]",0.00117 µM,18.9 µM
"CCOC(=O)Oc1c2n(cc(C(=O)NCc3ccc(F)cc3F)c1=O)[C@@H]1CN(C2=O)[C@@H](C)CC[C@]12CC(C)=NO2 [Example 123, (3′S,5S,7′R)-10′-((2,4-difluorobenzyl)carbamoyl)-3,3′-dimethyl-1′,11′-dioxo-1′,4′,5′,11′-tetrahydro-3′H,4H,7′H-spiro[isoxazole-5,6′-[2,7]methanopyrido[1,2-a][1,4]diazonin]-12′-yl ethyl carbonate]",0.00173 µM,14.1 µM
"CCOC(=O)Oc1c2n(cc(C(=O)NCc3ccc(F)cc3F)c1=O)[C@@H]1CN(C2=O)[C@@H](C)CC[C@]12CC(OC)=NO2 [Example 124, (3′S,5S,7′R)-10′-((2,4-difluorobenzyl)carbamoyl)-3-methoxy-3′-methyl-1′,11′-dioxo-1′,4′,5′,11′-tetrahydro-3′H,4H,7′H-spiro[isoxazole-5,6′-[2,7]methanopyrido[1,2-a][1,4]diazonin]-12′-yl ethyl carbonate]",0.000898 µM,17.1 µM
"CCCCOC(=O)Oc1c2n(cc(C(=O)NCc3ccc(F)cc3F)c1=O)[C@@H]1CN(C2=O)[C@@H](C)CC[C@]12CC(C)=NO2 [Example 127, butyl butyl ((3′S,5S,7′R)-10′-((2,4-difluorobenzyl)carbamoyl)-3,3′-dimethyl-1′,11′-dioxo-1′,4′,5′,11′-tetrahydro-3′H,4H,7′H-spiro[isoxazole-5,6′-[2,7]methanopyrido[1,2-a][1,4]diazonin]-12′-yl) carbonate]",0.000201 µM,13.3 µM
